In BigSolDB 2.1:

Cc1[nH]nc2cc([N+](=O)[O-])ccc12
solubility (mole fraction)
Conditions | in DMF | in THF | in acetone | in acetonitrile | in ethanol | in ethyl acetate | in n-propanol | in water
278.15 K | 0.149 | 0.0579 | 0.0251 | 0.0093 | 0.0042 | 0.016 | 0.0051 | 2.1e-05
283.15 K | 0.161 | 0.0615 | 0.0295 | 0.0109 | 0.0051 | 0.0183 | 0.0061 | 2.7e-05
288.15 K | 0.177 | 0.0671 | 0.0336 | 0.0123 | 0.0059 | 0.021 | 0.0073 | 3.6e-05
293.15 K | 0.195 | 0.0726 | 0.0382 | 0.0139 | 0.007 | 0.0232 | 0.0084 | 4.71e-05
298.15 K | 0.215 | 0.0781 | 0.0433 | 0.0156 | 0.0083 | 0.0255 | 0.0096 | 6.31e-05
303.15 K | 0.236 | 0.0845 | 0.0481 | 0.0174 | 0.01 | 0.0295 | 0.0108 | 8.01e-05
308.15 K | 0.259 | 0.0903 | 0.0538 | 0.019 | 0.012 | 0.0328 | 0.012 | 9.91e-05
313.15 K | 0.283 | 0.097 | 0.0595 | 0.0206 | 0.014 | 0.0363 | 0.0136 | 0.000123
318.15 K | 0.309 | 0.105 | 0.0661 | 0.0222 | 0.0164 | 0.0394 | 0.0155 | 0.000147
323.15 K | 0.337 | 0.113 | 0.0738 | 0.0239 | 0.0194 | 0.043 | 0.0176 | 0.000179
328.15 K | 0.371 | 0.123 | 0.0829 | 0.0254 | 0.0227 | 0.0456 | 0.0204 | 0.000218
